# Test results as given in patent US20090004664A1, “HCV NS3 replicon shuttle vectors” (ROCHE PALO ALTO LLC, priority 2007, published 2009).
# Legend:
# Format in all cases: cell-based, HCV
# [1] = system: replicon containing patient-derived NS3 TN132-2 (NS3 V36M, GT1a clinical isolate TN132); experiment: Replicon phenotypic assay, replicon containing patient-derived NS3 TN132-2; settings: Hepatitis C virus, Huh-7
# Method: (§1) Five micrograms of DNA plasmids were linearized by Sca I restriction enzyme (Roche). After overnight digestion at 37° C., the DNA was purified using Qiagen PCR purification kit. One microgram of linearized DNA was used for the in vitro transcription using T7 Mega script kit following manufacturer's protocol (Ambion). After 2 hours of incubation at 37° C., DNase treatment was performed for 30 minutes at 37° C. to remove the DNA template. In vitro transcribed RNA was then purified using NucAway Spin Column following manufacturer's protocol (Ambion).
# (§2) Cured hepatoma cell line Huh7 were cultured at 37° C. in a humidified atmosphere with 5% CO2 in Dulbecco's Modified Eagle Medium (DMEM) supplemented with Glutamax™ and 100 mg/ml sodium pyruvate (Cat# 10569-010). The medium was further supplemented with 10% (v/v) FBS (Cat# 16000-036) and 1% (v/v) penicillin/streptomycin (Cat# 15140-122). All reagents were from Invitrogen/Gibco.
# (§3) Four million cured Huh7 cells were transfected with 5 μg of in vitro transcribed RNA using electroporation. […] Inhibitors were added 24 hours post-transfection in 3 fold dilutions at a final DMSO concentration of 1% and firefly luciferase reporter signal was read 72 hours after addition of inhibitors using the Luciferase Assay system (Promega, cat #E1501). […]
# [2] = system: Genotype-1a template NS3 shuttle vector (H77NS3) replicon; experiment: Replicon phenotypic assay (transient replicon, firefly luciferase), Genotype-1a template NS3 shuttle vector; settings: Hepatitis C virus, Huh-7; H77 NS3 replicon in cured Huh7 cells; inhibitor added 24 h post-transfection, luciferase read 72 h later
# Method: as §1, §2, §3
# [3] = system: replicon containing patient-derived NS3 TN132-6 (NS3 V36M, GT1a clinical isolate TN132); experiment: Replicon phenotypic assay, replicon containing patient-derived NS3 TN132-6; settings: Hepatitis C virus, Huh-7
# Method: as §1, §2, §3
# [4] = system: replicon containing patient-derived NS3 2209-23; experiment: Replicon phenotypic assay, replicon containing patient-derived NS3 2209-23; settings: Hepatitis C virus, Huh-7; 2209-23 replicon in cured Huh7 cells; inhibitor added 24 h post-transfection, luciferase read 72 h later
# Method: as §1, §2, §3
# [5] = system: replicon containing patient-derived NS3 TN132-1 (NS3 V36M, GT1a clinical isolate TN132); experiment: Replicon phenotypic assay, replicon containing patient-derived NS3 TN132-1; settings: Hepatitis C virus, Huh-7
# Method: as §1, §2, §3
# [6] = system: replicon containing patient-derived NS3 of sample TN-132 (V36M mutation in the NS3 gene); experiment: Replicon phenotypic assay, patient sample TN-132; settings: sample TN-132 carrying V36M mutation in the NS3 gene
# Method: as §1, §2, §3
smiles,measurement,setting,value
CCC[C@H](NC(=O)[C@@H]1[C@H]2CCC[C@H]2CN1C(=O)[C@@H](NC(=O)[C@@H](NC(=O)c1cnccn1)C1CCCCC1)C(C)(C)C)C(=O)C(=O)NC1CC1 [VX-950],IC50,[1],2610 nM
same,IC50,[2],440 nM
same,IC50,[3],1470 nM
same,IC50,[4],630 nM
same,IC50,[5],2370 nM
same,sensitivity of sample TN-132 to the inhibitor,[6],reduced sensitivity
